Molecular target: Beta-secretase 1 (Homo sapiens, UniProt P56817)
Experiment: Fluorescence Resonance Energy Transfer (FRET) Assay
Settings: 20 °C
Method: The FRET assay was performed at 20 C on a FLUOstar (BMG Lab Technologies, D-77656 Offenburg) using 96-well microtiter plates (Dynex Microfluor 2, Chantilly, VA).

Sequence of Beta-secretase 1 (P56817 whole entry): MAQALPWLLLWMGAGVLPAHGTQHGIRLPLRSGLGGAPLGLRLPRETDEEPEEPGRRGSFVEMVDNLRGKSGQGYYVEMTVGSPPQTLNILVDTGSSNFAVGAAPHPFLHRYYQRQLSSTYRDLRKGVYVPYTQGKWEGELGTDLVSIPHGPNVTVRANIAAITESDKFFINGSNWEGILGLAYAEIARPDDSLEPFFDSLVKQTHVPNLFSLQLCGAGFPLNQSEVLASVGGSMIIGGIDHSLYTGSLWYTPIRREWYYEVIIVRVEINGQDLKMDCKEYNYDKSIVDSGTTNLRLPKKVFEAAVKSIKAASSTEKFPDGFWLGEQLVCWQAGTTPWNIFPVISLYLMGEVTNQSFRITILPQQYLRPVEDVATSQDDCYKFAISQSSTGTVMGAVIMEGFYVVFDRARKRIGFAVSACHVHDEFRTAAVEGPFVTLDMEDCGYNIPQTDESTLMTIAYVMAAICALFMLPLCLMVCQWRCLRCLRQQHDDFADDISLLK

SMILES	IC50
O=C1CN(Cc2ccccc2)C(=O)C1SCc1cccc(C(F)(F)F)c1 (configuration not stated) [N-Substituted tetramic acid, 92]	212 µM
O=C1OC(c2ccccc2)C(=O)C1Sc1ccccc1 (configuration not stated) [Tetramic acid, 72]	105 µM
O=C1CN(Cc2cccc(C(F)(F)F)c2)C(=O)C1Sc1ccccc1 (configuration not stated) [N-Substituted tetramic acid, 89]	> 200 µM
CCC(C)C1NC(=O)C(SCc2ccco2)C1=O (configuration not stated) [Tetramic acid, 43]	200 µM
CC(C)CC1NC(=O)C(SCC(=O)NCc2ccc3c(c2)OCO3)C1=O (configuration not stated) [Tetramic acid, 30]	200 µM
O=C1NC(Cc2ccccc2)C(=O)C1SCc1ccco1 (configuration not stated) [Tetramic acid, 56]	145 µM
CCC(C)C1NC(=O)C(SCc2cccc(C(F)(F)F)c2)C1=O (configuration not stated) [Tetramic acid, 38]	60 µM
O=C1OC(c2ccccc2)C(=O)C1SCCc1ccccc1 (configuration not stated) [Tetramic acid, 74]	> 200 µM
CC(C)CC1NC(=O)C(SCc2cccc(C(F)(F)F)c2)C1=O (configuration not stated) [Tetramic acid, 25]	194 µM
COc1ccc(CN2CC(=O)C(Sc3ccccc3)C2=O)cc1 (configuration not stated) [N-Substituted tetramic acid, 91]	> 200 µM
CCC(C)C1NC(=O)C(SCC(=O)NCc2ccc3c(c2)OCO3)C1=O (configuration not stated) [Tetramic acid, 44]	> 200 µM
O=C1OC(CCc2ccccc2)C(=O)C1SCc1cccc(C(F)(F)F)c1 (configuration not stated) [Tetramic acid, 77]	> 200 µM

From BindingDB's records for doi:10.1021/cc0600021 (Darmstadt Technical University, 2006)
